Patent publication US8153643B2, “Quinazoline derivatives” (AstraZeneca AB, priority 2004, dated 2012)

Key:
PDGFRα tyrosine kinase = target: T1, PDGFRα tyrosine kinase (Homo sapiens, UniProt P16234); test: In vitro enzyme assay (ELISA), PDGFRα; assay type: biochemical; settings: Test (a); ATP 14 μM; read-out: IC50 versus PDGFRα tyrosine kinase
T1 construct: PDGFRα, PDGFRβ and KDR receptor cytoplasmic domains, obtained by expression of recombinant protein in insect cells; purchased Upstate Biotechnology Inc. 14-467; host or cells: Sf9 insect cells
Protocol: (§1) (a) In Vitro Enzyme Assays
(§2) The ability of test compounds to inhibit the phosphorylation of a tyrosine containing polypeptide substrate by the tyrosine kinase enzymes PDGFRα, PDGFRβ and KDR was assessed using conventional ELISA assays.
(§3) DNA encoding the PDGFRα, PDGFRβ or KDR receptor cytoplasmic domains may be obtained by total gene synthesis (International Biotechnology Lab., 1987, 5(3), 19-25) or by cloning. The DNA fragments may be expressed in a suitable expression system to obtain polypeptide with tyrosine kinase activity. For example, PDGFRα, PDGFRβ and KDR receptor cytoplasmic domains, obtained by expression of recombinant protein in insect cells, can be shown to display intrinsic tyrosine kinase activity. In the case of the VEGF receptor KDR (Genbank Accession No. L04947), a DNA fragment encoding most of the cytoplasmic domain, commencing with methionine 806 and including the termination codon may be cloned into a baculovirus transplacement vector [for example pAcYM1 (see The Baculovirus Expression System: A Laboratory Guide, L. A. King and R. D. Possee, Chapman and Hall, 1992) or pAc360 or pBlueBacHis (available from Invitrogen Corporation)]. This recombinant construct may be co-transfected into insect cells [for example Spodoptera frugiperda 21 (Sf21) or Spodoptera frugiperda 9 (Sf9)] with viral DNA (for example Pharmingen BaculoGold) to prepare recombinant baculovirus. Details of the methods for the assembly of recombinant DNA molecules and the preparation and use of recombinant baculovirus can be found in standard texts, for example Sambrook et al., 1989, Molecular cloning—A Laboratory Manual, 2nd edition, Cold Spring Harbour Laboratory Press and O'Reilly et al., 1992, Baculovirus Expression Vectors—A Laboratory Manual, W.H. Freeman and Co, New York). […]

phospho-Tyr751 PDGFRβ = target: T2, phospho-Tyr751 PDGFRβ (Homo sapiens, UniProt P09619); test: In vitro phospho-Tyr751 PDGFRβ ELISA assay; assay type: cell-based; settings: Test (b); MG63 osteosarcoma cells stimulated with PDGFBB; read-out: IC50 versus phospho-Tyr751 PDGFRβ
T2 construct: phosphorylation of PDGFR expressed on MG63 osteosarcoma cells; endogenous in cells; host or cells: MG63 osteosarcoma cells
Protocol: (b) In Vitro Phospho-Tyr751 PDGFRβ ELISA Assay
This assay uses a conventional EISA method to determine the ability of test compounds to inhibit phosphorylation of tyrosine in PDGFRβ.
An MG63 osteosarcoma cell line [American Type Culture Collection (ATCC) CCL 1427] was routinely maintained at 37° C. with 7.5% CO2 in Dulbecco's modified Eagle's growth medium (DMEM; Sigma-Aldrich; Catalogue No. D6546) containing 10% foetal calf serum (FCS; Sigma-Aldrich; Catalogue No. F7524) and 2 mM L-glutamine (Invitrogen Ltd., Paisley, UK; Catalogue No. 25030-024).
For the assay, the cells were detached from the culture flask using a trypsin/ethylenediaminetetraacetic acid (EDTA) mixture (Invitrogen Ltd.; Catalogue No. 15400-054) and resuspended in test media comprising DMEM without phenol red (Sigma-Aldrich; Catalogue No. D5921) containing 1% charcoal-stripped foetal calf serum (FCS) (Sigma-Aldrich; Catalogue No. F7524, stripped by incubation with dextran-coated activated charcoal at 55° C. for 30 minutes with continuous stirring followed by removal of the charcoal by centrifugation and filter sterilisation) and 2 mM L-glutamine (Invitrogen Ltd., Catalogue No. 25030-024) to give 6×10^4 cells per ml. Aliquots (100 μl) were seeded into each of the wells of columns 2-12 (excluding column 1) and rows B-G (excluding rows A and H) of a clear 96 well tissue culture plate (Corning Life Sciences, Koolhovenlaan, The Netherlands; Catalogue No. 3595) to give a density of about 6000 cells per well. Aliquots (100 μl) of culture media were placed in the outer wells to minimise edge effects. The cells were incubated overnight at 37° C. with 7.5% CO2 to allow the cells to adhere to the wells.
Test compounds were prepared as 10 mM stock solutions in DMSO and serially diluted as required with test media to give a range of concentrations. Aliquots (50 μl) of each compound concentration were added to the cells in each well. Control cells received a dilution of DMSO only. The cells were incubated for 90 minutes at 37° C. with 7.5% CO2.
The resultant cells were stimulated with PDGFBB using the following procedure. A lyophilised powder of PDGFBB, (Sigma-Aldrich; Catalogue No. P4306) was mixed with 4 mM aqueous hydrochloric acid containing 0.1% filter-sterilised BSA to provide a stock solution of 10 μg/ml of PDGFBB. A dilution of this stock solution into test medium provided a 200 ng/ml PDGFBB solution. Aliquots thereof (50 μl) were added to compound treated cells and to one set of control wells to give the “maximum” control. The “minimum” controls received media only. The cells were incubated at 37° C. with 7.5% CO2 for 5 minutes. […]

KDR tyrosine kinase = target: T3, KDR tyrosine kinase (Homo sapiens, UniProt P35968); test: In vitro enzyme assay (ELISA), KDR; assay type: biochemical; settings: Test (a); ATP 8 μM; read-out: IC50 versus KDR tyrosine kinase
T3 construct: encoding most of the cytoplasmic domain, commencing with methionine 806 and including the termination codon; made in house; host or cells: Sf9 insect cells (baculovirus)
Protocol: as §1, §2
DNA encoding the PDGFRα, PDGFRβ or KDR receptor cytoplasmic domains may be obtained by total gene synthesis (International Biotechnology Lab., 1987, 5(3), 19-25) or by cloning. The DNA fragments may be expressed in a suitable expression system to obtain polypeptide with tyrosine kinase activity. For example, PDGFRα, PDGFRβ and KDR receptor cytoplasmic domains, obtained by expression of recombinant protein in insect cells, can be shown to display intrinsic tyrosine kinase activity. In the case of the VEGF receptor KDR (Genbank Accession No. L04947), a DNA fragment encoding most of the cytoplasmic domain, commencing with methionine 806 and including the termination codon may be cloned into a baculovirus transplacement vector [for example pAcYM1 (see The Baculovirus Expression System: A Laboratory Guide, L. A. King and R. D. Possee, Chapman and Hall, 1992) or pAc360 or pBlueBacHis (available from Invitrogen Corporation)]. This recombinant construct may be co-transfected into insect cells [for example Spodoptera frugiperda 21 (Sf21) or Spodoptera frugiperda 9 (Sf9)] with viral DNA (for example Pharmingen BaculoGold) to prepare recombinant baculovirus. Details of the methods for the assembly of recombinant DNA molecules and the preparation and use of recombinant baculovirus can be found in standard texts, for example Sambrook et al., 1989, Molecular cloning—A Laboratory Manual, 2nd edition, Cold Spring Harbour Laboratory Press and O'Reilly et al., 1992, Baculovirus Expression Vectors—A Laboratory Manual, W.H. Freeman and Co, New York).
For expression, Sf9 cells were infected with plaque-pure KDR recombinant virus and harvested 48 hours later. […]

PDGFRβ tyrosine kinase = target: T4, PDGFRβ tyrosine kinase (Homo sapiens, UniProt P09619); test: In vitro enzyme assay (ELISA), PDGFRβ; assay type: biochemical; settings: Test (a); ATP 2.8 μM; read-out: IC50 versus PDGFRβ tyrosine kinase
T4 construct: PDGFRα, PDGFRβ and KDR receptor cytoplasmic domains, obtained by expression of recombinant protein in insect cells; purchased Upstate Biotechnology Inc. 14-463; host or cells: Sf9 insect cells
Protocol: as §1, §2, §3

[1] = tested on: human glioblastoma lines U343 and U87; settings: injection into the brains of nude mice of U343 and U87; Cancer Research, 2000, 60, 5143-5150; cited from earlier work
[2] = tested on: dermatofibrosarcoma protruberans cell cultures; settings: Cancer Research, 2001, 61, 5778-5783; cited from earlier work
PDGF receptor kinase = settings: Nature Reviews, 2002, 1, 493-502; Cancer Research, 1996, 56, 100-104; cited from earlier work

T3 sequence (P35968 786-1356 limits assumed): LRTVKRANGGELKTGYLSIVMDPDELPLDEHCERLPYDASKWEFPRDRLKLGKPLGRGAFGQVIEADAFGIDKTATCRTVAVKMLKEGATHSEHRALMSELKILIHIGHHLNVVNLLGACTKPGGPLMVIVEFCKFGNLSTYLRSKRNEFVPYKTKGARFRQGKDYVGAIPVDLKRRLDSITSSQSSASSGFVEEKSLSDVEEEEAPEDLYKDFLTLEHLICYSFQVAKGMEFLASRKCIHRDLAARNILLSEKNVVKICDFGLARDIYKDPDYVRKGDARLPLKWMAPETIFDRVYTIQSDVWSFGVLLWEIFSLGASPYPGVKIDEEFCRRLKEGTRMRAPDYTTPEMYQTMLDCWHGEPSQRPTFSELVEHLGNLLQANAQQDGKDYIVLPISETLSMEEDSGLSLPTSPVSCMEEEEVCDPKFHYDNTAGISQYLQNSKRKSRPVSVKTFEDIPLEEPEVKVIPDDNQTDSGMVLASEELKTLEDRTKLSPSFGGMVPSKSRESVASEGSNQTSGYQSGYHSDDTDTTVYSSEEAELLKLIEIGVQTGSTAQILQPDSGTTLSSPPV
T4 sequence (P09619 554-1106 limits assumed): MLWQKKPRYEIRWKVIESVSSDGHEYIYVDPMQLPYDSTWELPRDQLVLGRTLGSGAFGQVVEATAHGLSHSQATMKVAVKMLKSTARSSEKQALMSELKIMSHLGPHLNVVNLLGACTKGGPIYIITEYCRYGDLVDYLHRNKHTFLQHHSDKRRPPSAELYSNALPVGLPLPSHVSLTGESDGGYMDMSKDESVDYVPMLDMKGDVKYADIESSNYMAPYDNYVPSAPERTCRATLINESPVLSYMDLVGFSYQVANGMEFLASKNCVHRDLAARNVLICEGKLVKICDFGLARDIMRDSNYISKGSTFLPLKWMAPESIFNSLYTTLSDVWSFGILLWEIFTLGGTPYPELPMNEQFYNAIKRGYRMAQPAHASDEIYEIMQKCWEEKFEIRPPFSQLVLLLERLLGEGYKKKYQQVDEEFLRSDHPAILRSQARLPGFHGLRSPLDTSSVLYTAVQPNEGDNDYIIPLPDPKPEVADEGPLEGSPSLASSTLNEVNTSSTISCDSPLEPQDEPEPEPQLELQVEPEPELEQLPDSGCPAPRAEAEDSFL
T1 sequence (P16234 550-1089 limits assumed): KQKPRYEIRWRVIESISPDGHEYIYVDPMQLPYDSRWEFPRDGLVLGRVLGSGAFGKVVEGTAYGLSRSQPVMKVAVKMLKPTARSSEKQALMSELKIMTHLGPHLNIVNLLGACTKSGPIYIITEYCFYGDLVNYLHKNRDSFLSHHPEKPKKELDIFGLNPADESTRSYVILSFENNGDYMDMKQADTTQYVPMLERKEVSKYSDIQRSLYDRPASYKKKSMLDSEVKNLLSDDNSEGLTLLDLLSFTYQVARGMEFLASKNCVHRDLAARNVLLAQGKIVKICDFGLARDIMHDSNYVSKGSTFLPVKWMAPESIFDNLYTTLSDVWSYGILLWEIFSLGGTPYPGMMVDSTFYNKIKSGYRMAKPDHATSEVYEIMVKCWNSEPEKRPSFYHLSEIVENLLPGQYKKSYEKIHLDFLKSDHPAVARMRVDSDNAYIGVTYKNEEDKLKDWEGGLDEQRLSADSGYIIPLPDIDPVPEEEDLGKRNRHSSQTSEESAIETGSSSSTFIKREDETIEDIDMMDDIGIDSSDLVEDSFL
T2 sequence (P09619 33-1106): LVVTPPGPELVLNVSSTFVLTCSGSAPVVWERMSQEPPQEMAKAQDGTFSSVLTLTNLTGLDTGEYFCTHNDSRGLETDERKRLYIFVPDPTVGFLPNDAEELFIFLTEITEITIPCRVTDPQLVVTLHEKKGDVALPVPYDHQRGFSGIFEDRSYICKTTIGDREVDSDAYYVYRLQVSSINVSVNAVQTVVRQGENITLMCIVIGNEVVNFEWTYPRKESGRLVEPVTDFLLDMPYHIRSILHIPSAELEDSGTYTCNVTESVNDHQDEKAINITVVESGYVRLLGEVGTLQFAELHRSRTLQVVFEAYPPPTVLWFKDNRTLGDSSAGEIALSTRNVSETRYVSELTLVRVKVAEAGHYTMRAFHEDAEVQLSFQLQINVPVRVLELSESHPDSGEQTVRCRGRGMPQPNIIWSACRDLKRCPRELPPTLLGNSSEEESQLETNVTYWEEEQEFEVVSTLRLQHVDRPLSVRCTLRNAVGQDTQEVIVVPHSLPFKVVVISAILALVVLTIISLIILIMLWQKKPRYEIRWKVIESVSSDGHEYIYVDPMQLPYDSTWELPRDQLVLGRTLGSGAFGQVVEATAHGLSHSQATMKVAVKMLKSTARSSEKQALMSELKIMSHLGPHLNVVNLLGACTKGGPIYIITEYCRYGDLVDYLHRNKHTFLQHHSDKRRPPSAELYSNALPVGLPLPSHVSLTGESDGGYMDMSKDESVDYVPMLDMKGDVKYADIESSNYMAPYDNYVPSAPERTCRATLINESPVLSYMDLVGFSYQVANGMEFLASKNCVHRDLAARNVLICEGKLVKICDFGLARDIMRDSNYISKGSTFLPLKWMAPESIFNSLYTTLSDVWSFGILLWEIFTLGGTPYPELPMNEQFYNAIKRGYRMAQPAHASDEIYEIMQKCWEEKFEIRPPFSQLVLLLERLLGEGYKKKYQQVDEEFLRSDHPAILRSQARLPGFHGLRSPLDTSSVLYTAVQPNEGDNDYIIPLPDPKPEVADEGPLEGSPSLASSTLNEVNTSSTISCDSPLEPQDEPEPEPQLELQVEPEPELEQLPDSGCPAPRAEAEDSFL

IC50 (PDGFRα tyrosine kinase) | IC50 (phospho-Tyr751 PDGFRβ) | IC50 (KDR tyrosine kinase) | IC50 (PDGFRβ tyrosine kinase) | SMILES | growth of glioblastoma tumours [1] | in vivo growth of dermatofibrosarcoma protruberans cell cultures [2] | PDGF receptor kinase activity (PDGF receptor kinase)
~400 nM | ~0.5 nM | ~10 nM | ~300 nM | COc1cc2ncnc(Oc3ccc(CC(=O)Nc4ccc(N(C)C)cn4)cc3)c2cc1OC [Example 6, N-(5-dimethylaminopyridin-2-yl)-2-[4-(6,7-dimethoxyquinazolin-4-yloxy)phenyl]acetamide] |  |  | 
~250 nM | ~1 nM | ~1 nM | ~60 nM | COc1cccc(NC(=O)Cc2ccc(Oc3ncnc4cc(OC)c(OC)cc34)cc2)c1 [Example 1, N-(3-methoxyphenyl)-2-[4-(6,7-dimethoxyquinazolin-4-yloxy)phenyl]acetamide] |  |  | 
 |  |  |  | Cc1ccc(NC(=O)c2ccc(CN3CCN(C)CC3)cc2)cc1Nc1nccc(-c2cccnc2)n1 [imatinib] | inhibits the growth | inhibits the in vivo growth | inhibit PDGF receptor kinase activity
~300 nM | ~2 nM |  | ~100 nM | COc1cc2ncnc(Oc3ccc(CC(=O)Nc4nc(C)cs4)cc3)c2cc1OC [Compound 17 within Example 9, N-(4-methylthiazol-2-yl)-2-[4-(6,7-dimethoxyquinazolin-4-yloxy)phenyl]acetamide] |  |  | 
 | ~1 nM | ~10 nM |  | COc1cc2ncnc(Oc3ccc(CC(=O)Nc4cccc(N(C)C)n4)cc3)c2cc1OC [Compound 4 within Example 10, N-(6-dimethylaminopyridin-2-yl)-2-[4-(6,7-dimethoxyquinazolin-4-yloxy)phenyl]acetamide] |  |  | 
